Values after ≈ are worked out from the molar mass of the structure shown. Like-named read-outs stand apart in the source and are kept apart here.
What was measured:
Aspergillus fumagitus [1] = experiment: Agar well diffusion; format: cell-based; details: read-out: Inhibition Zone
From the text: (§1) The antimicrobial efficiency of the synthesized unsymmetrical carbamide derivatives was screened using standard clinical pathogens derived from Department of Microbiology and Immunology, Faculty of Medicine (Boys), Al-Azhar University. The tested microbial pathogens used in this study were as follows, two Gram-positive bacteria (Bacillus subtilis, Staphylococcus aureus), two Gram-negative bacteria (Pseudomonas aerginousea, klebsiella pneumoniae) and two fungi (Candida albicans, Aspergillus fumgitus). Before each antimicrobial examination, pre-activation of each microbial pathogen was implemented using specific growth conditions. For bacterial ones, preinoculum was prepared using Nuitrent broth medium (Codalab, Spain) at 37 °C for 24 h. while the fungal pathogens were activated using Potato Dextrose broth (Codalab, Spain) at 28 °C for 48 h. Consequently, each tested pathogen justified its inoculum size based on Colony Forming Units (CFU) to be closed to […] during all antimicrobial tests.

Candida albicans [2] = experiment: Agar well diffusion; format: cell-based; details: read-out: Inhibition Zone
From the text: as §1

Bacillus subtilis [3] = experiment: Agar well diffusion; format: cell-based; details: read-out: Inhibition Zone
From the text: as §1, with “For bacterial ones, preinoculum was prepared using Nuitrent broth medium (Codalab, Spain) at 37 °C for 24 h. while the fungal pathogens were activated using Potato Dextrose broth (Codalab, Spain) at 28 °C for 48 h.” left out

Klebsiella pneumonia [4] = experiment: Agar well diffusion; format: cell-based; details: Klebsiella pneumoniae, read-out: Inhibition Zone
From the text: as §1, with “For bacterial ones, preinoculum was prepared using Nuitrent broth medium (Codalab, Spain) at 37 °C for 24 h. while the fungal pathogens were activated using Potato Dextrose broth (Codalab, Spain) at 28 °C for 48 h.” left out

Pseudomonas aeruginosa [5] = experiment: Agar well diffusion; format: cell-based; details: read-out: Inhibition Zone
From the text: as §1, with “For bacterial ones, preinoculum was prepared using Nuitrent broth medium (Codalab, Spain) at 37 °C for 24 h. while the fungal pathogens were activated using Potato Dextrose broth (Codalab, Spain) at 28 °C for 48 h.” left out

Staphylococcus aureus [6] = experiment: Agar well diffusion; format: cell-based
From the text: as §1, with “For bacterial ones, preinoculum was prepared using Nuitrent broth medium (Codalab, Spain) at 37 °C for 24 h. while the fungal pathogens were activated using Potato Dextrose broth (Codalab, Spain) at 28 °C for 48 h.” left out

Aspergillus fumagitus [7] = experiment: MIC by microdilution (CLSI); format: cell-based; details: read-out: Minimum inhibitory concentration (MIC)
Description: (§2) For this purpose, serial dilution of the potent compounds was carried out to obtain the desired concentrations (i.e. 10–400 µg/mL). In brief, a defined weight for each selected compound was dissolved in dimethylsulphoxide (DMSO) and used as a stock solution[29]. The determination of the MIC value for each targeted compound was known as the lowest concentration of each sample that yielded a minimum number of colony-forming units (CFU) compared to the untreated samples[28].

Candida albicans [8] = experiment: MIC by microdilution (CLSI); format: cell-based; details: read-out: Minimum inhibitory concentration (MIC)
Description: as §2

Bacillus subtilis [9] = experiment: MIC by microdilution (CLSI); format: cell-based; details: read-out: Minimum inhibitory concentration (MIC)
Description: (§3) In brief, a defined weight for each selected compound was dissolved in dimethylsulphoxide (DMSO) and used as a stock solution[29].

Klebsiella pneumonia [10] = experiment: MIC by microdilution (CLSI); format: cell-based; details: Klebsiella pneumoniae, read-out: Minimum inhibitory concentration (MIC)
Description: as §3

Pseudomonas aeruginosa [11] = experiment: MIC by microdilution (CLSI); format: cell-based; details: read-out: Minimum inhibitory concentration (MIC)
Description: as §3

Staphylococcus aureus [12] = experiment: MIC by microdilution (CLSI); format: cell-based; details: read-out: Minimum inhibitory concentration (MIC)
Description: as §3

Bacillus subtilis [13] = experiment: Lipid peroxidation (LPO) MDA-TBA assay of bacterial cell membrane; format: cell-based; details: overnight incubation, MDA-TBA at 532 nm
Description: (§4) Lipid peroxidation of bacterial cell membranes was a remarkable tool indicating the oxidative stress that was caused by the tested compounds. The lipid peroxidation colorimetric assay kit was used for this purpose. […]. […] Briefly, each tested compound was incubated with each bacterial pathogen overnight under shaking and then 1 mL of the treated bacterial cell was vigorously mixed with 300 μL MDA lysis buffer at 4 °C. The addition of 3 μL of Butylated hydroxytoluene (BHT) was then performed to avoid the pigment interference that resulted from the decomposition of lipophilic peroxides. Thereafter, samples were separated by centrifugation at 8000 rpm for 10 min, and the insoluble substances were discarded. Finally, 200 μL of the clear supernatant was mixed with 600 μL of the TBA solution at 95 °C for 60 min. Samples were then cooled at room temperature, and the developed pink color was determined at 532 nm using a Spectrophotometer (Agilent Cary 100, Germany). The positive control was also prepared using 5% of Hydrogen peroxide and treated each bacterial pathogen for 20 min. The noticed increase in the lipid peroxidation efficiency was expressed from the following equation: Lipidperoxidationefficiency%=NC-NS/NC×100. where NC is the absorbance of lipid peroxidation in the untreated bacterial cells and NS is the absorbance of lipid peroxidation in the treated bacterial cells.

Klebsiella pneumonia [14] = experiment: as above; format: cell-based; details: overnight incubation, MDA-TBA at 532 nm
Description: as §4

Pseudomonas aeruginosa [15] = experiment: as above; format: cell-based; details: overnight incubation, MDA-TBA at 532 nm
Description: as §4

Staphylococcus aureus [16] = experiment: as above; format: cell-based; details: overnight incubation, MDA-TBA at 532 nm
Description: as §4

[17] = tested on: HCT-116 (human colon cancer); experiment: MTT cytotoxicity assay; format: cell-based
Description: (§5) The MTT 3-(4,5-dimethylthiazol-2-yl)-2,5-diphenyl-tetrazolium bromide (Bio Basic Canada Inc. Toronto, Canada) assay was used to assess cell viability. The procedures were carried out in a biosafety class II sterile laminar air flow cabinet (Baker, SG403INT; Sanford, ME, USA). […] Cells were seeded at a density of (10^4 cells/well) into 96-well micro titer polypropylene plates and left to adhere for 24 h. The media was aspirated and the test chemicals were given to the cells in a single dose of 100 µM in DMSO. After 48 h of incubation, 40 µL of MTT salt ([…]) was applied to each well. […] Instead of the tested substances, the medium was applied to the untreated cells (negative control). […] The testing substance was dissolved in dimethylsulfoxide (DMSO), and its final concentration in the cells was less than 0.2%. The solvent concentration was the same for all medications and between the control and drug treatments at the same dilution.

[18] = tested on: MCF-7 (human breast cancer); experiment: MTT cytotoxicity assay; format: cell-based; details: for IC50: MTT
Description: as §5, with “The media was aspirated and the test chemicals were given to the cells in a single dose of 100 µM in DMSO.” left out

MTT cytotoxicity assay = format: cell-based, human; details: human, BJ-1 normal cells
Description: as §5

[19] = tested on: BJ-1 (human normal skin fibroblast cells); experiment: MTT cytotoxicity assay; format: cell-based; details: BJ-1 normal cells, 100 µM
Description: as §5

HCT-116 cells [20] = experiment: Cell cycle analysis by flow cytometry (PI staining); format: cell-based, human
Description: The ethanol-suspended cells were centrifuged and re-suspended in 5 mL 1 × DPBS, then centrifuged again before being re-suspended in 1 mL of PI staining solution. The stained cells were kept in the dark at room temperature for 30 min before being transferred to the CytoFLEX Flow Cytometer to measure their fluorescence. […] BECKMAN COULTER Inc., Cairo, Egypt, Cat. No. 4238055-CB was used in this assay.

HCT-116 cells [21] = experiment: Annexin V-FITC/PI necrosis cell apoptosis assay; format: cell-based, human; details: % of population
Description: (§6) The levels of necrosis and apoptosis in cells were determined by CytoFLEX Flow Cytometer. A total of 1 × 10^6 cells were washed in 1 × DPBS, and then were centrifuged at 500 × ϲ for 5 min. 1 μL of annexin V-FITC solution and 5 μL of dissolved PI were added to 100 μL of the cell suspensions that kept on ice and were incubated for 15 min in the dark. Cells were then analyzed by the CytoFLEX Flow Cytometer (Beckman Coulter Life Sciences, USA) and the percentage of apoptotic cells was determined using CytExpert Software.

MCF-7 cells = experiment: Annexin V-FITC/PI necrosis cell apoptosis assay; format: cell-based, human; details: % of population
Description: as §6

[22] = Aspergillus fumagitus, 20 µg/mL
[23] = Homo sapiens, MCF7, 48 h, MCF-7, 48 h

## Cc1ccc(NC(=O)N2CCOCC2)cc1 [Compound 15, N-(p-tolyl)morpholine-4-carboxamide]
Aspergillus fumagitus [1]; [22]
  zone of inhibition at 20 µg/mL: 2 mm
Candida albicans [2]; 20 µg/mL
  zone of inhibition at 20 µg/mL: 4 mm
Bacillus subtilis [3]; 20 µg/mL
  zone of inhibition at 20 µg/mL: 2 mm
Klebsiella pneumonia [4]; Klebsiella pneumonia, 20 µg/mL
  zone of inhibition at 20 µg/mL: 4 mm
Pseudomonas aeruginosa [5]; 20 µg/mL
  zone of inhibition at 20 µg/mL: 4 mm
Staphylococcus aureus [6]
  zone of inhibition at 20 µg/mL: 2 mm
Aspergillus fumagitus [7]
  MIC: 20 µg/mL (≈ 90.8 µM)
Candida albicans [8]
  MIC: 10 µg/mL (≈ 45.4 µM)
Bacillus subtilis [9]
  MIC: 40 µg/mL (≈ 182 µM)
Klebsiella pneumonia [10]
  MIC: 20 µg/mL (≈ 90.8 µM)
Pseudomonas aeruginosa [11]
  MIC: 20 µg/mL (≈ 90.8 µM)
Staphylococcus aureus [12]
  MIC: 40 µg/mL (≈ 182 µM)
Bacillus subtilis [13]
  Lipid peroxidation: 157.1%
Klebsiella pneumonia [14]
  Lipid peroxidation: 108.6%
Pseudomonas aeruginosa [15]
  Lipid peroxidation: 107%
Staphylococcus aureus [16]
  Lipid peroxidation: 128.9%
other
  melting point: 165 to 167 °C

## CN1CCN(C(=O)Nc2ccccc2)CC1 [Compound 21, 4-Methyl-N-phenylpiperazine-1-carboxamide]
Aspergillus fumagitus [1]; Aspergillus
  zone of inhibition at 20 µg/mL: 2 mm
Candida albicans [2]
  zone of inhibition at 20 µg/mL: 3 mm
Bacillus subtilis [3]
  zone of inhibition at 20 µg/mL: 4 mm
Klebsiella pneumonia [4]
  zone of inhibition at 20 µg/mL: 3 mm
Pseudomonas aeruginosa [5]
  zone of inhibition at 20 µg/mL: 2 mm
[17]; HCT-116, 48 h
  cytotoxicity at 100 µM: ≥ 65%
[17]; HCT-116, MTT, 48 h
  IC50: 38.5 ± 0.17 µM
[18]; Homo sapiens, MCF7, 48 h
  cytotoxicity at 100 µM: ≥ 51%
[18]; [23]
  IC50: 91.6 ± 0.112 µM
MTT cytotoxicity assay
  cytotoxicity at 48 h, 100 µM: 38.9%
[19]
  Cytotoxicity (%): 47.2%
HCT-116 cells [20]
  cell cycle arrest (phase): weaker than those of compound 13
HCT-116 cells [21]
  early apoptosis: 0.99%
  late apoptosis: 0.44%
other
  melting point: 128 to 130 °C

## O=C(Nc1ccccc1)N1CCCCC1 [Compound 22, N-phenylpiperidine-1-carboxamide]
Aspergillus fumagitus [1]; [22]
  zone of inhibition at 20 µg/mL: 4 mm
Candida albicans [2]; 20 µg/mL
  zone of inhibition at 20 µg/mL: 5 mm
Bacillus subtilis [3]; 20 µg/mL
  zone of inhibition at 20 µg/mL: 5 mm
Klebsiella pneumonia [4]; Klebsiella pneumonia, 20 µg/mL
  zone of inhibition at 20 µg/mL: 3 mm
Pseudomonas aeruginosa [5]; 20 µg/mL
  zone of inhibition at 20 µg/mL: 3 mm
Staphylococcus aureus [6]
  zone of inhibition at 20 µg/mL: 2 mm
Aspergillus fumagitus [7]
  MIC: 10 µg/mL (≈ 49 µM)
Candida albicans [8]
  MIC: 5 µg/mL (≈ 24.5 µM)
Bacillus subtilis [9]
  MIC: 10 µg/mL (≈ 49 µM)
Klebsiella pneumonia [10]
  MIC: 40 µg/mL (≈ 196 µM)
Pseudomonas aeruginosa [11]
  MIC: 80 µg/mL (≈ 392 µM)
Staphylococcus aureus [12]
  MIC: 40 µg/mL (≈ 196 µM)
Bacillus subtilis [13]
  Lipid peroxidation: 264.8%
Klebsiella pneumonia [14]
  Lipid peroxidation: 191.3%
Pseudomonas aeruginosa [15]
  Lipid peroxidation: 170%
Staphylococcus aureus [16]
  Lipid peroxidation: 273.4%
[18]; [23]
  IC50: 91.6 ± 0.112 µM
[18]; Homo sapiens, MCF7, MCF-7, single dose 100 µM, 48 h, read-out: Cytotoxicity (%)
  cytotoxicity at 100 µM: ≥ 51%
[18]; MCF-7, 48 h
  IC50: 57.9 ± 0.122 µM
MCF-7 cells
  early apoptosis: 7.93%
  late apoptosis: 1.1%
other
  melting point: 190 to 192 °C

— publication PMC11224357, “Green, facile synthesis and evaluation of unsymmetrical carbamide derivatives as antimicrobial and anticancer agents with mechanistic insights” (Scientific Reports, 2024)
